For series [1], the system named is L. infantum promastigotes. Kind of series: Antileishmanial activity against L. infantum promastigotes (luciferase assay). It counts as cell-based. Conditions: Leishmania infantum, 72 h, read-out: EC50 L. infantum Pro. On the procedure: L. infantum promastigotes (MHOM/MA/67/ITMAP-263, CNR Leishmania, Montpellier, France, expressing luciferase activity) were used in the following tests. The effects of the tested compounds on the growth of L. infantum promastigotes were assessed by Luciferase Assay. Briefly, promastigotes in log-phase in RPMI 1640 medium supplemented with 10% fetal calf serum (FCS), 2 mM L-glutamine and antibiotics (100U/mL penicillin, 100 µg/mL streptomycin and 50µg/mL geneticin), were incubated at an average density of 10^6 parasites/mL (100 µL/well) in sterile 96-well plates with various concentrations of compounds dissolved in DMSO (final concentration less than 0.5% v/v), in duplicate. Appropriate controls (100 µL/well) treated by DMSO and reference drugs (purchased for the majority from Sigma Aldrich) were added to each set of experiments. After a 72 h incubation period at 24 °C, each plate-well was then microscope-examined for detecting possible precipitate formation. To estimate the luciferase activities of promastigotes, 80 µL of each well are transferred in white 96-well plates, Steady Glow reagent (Promega) was added according to manufacter’s instructions, and plates were incubated for 2 min. The luminescence was measured in a FLUOstar Omega (BMG Labtech, Champigny-sur-Marne, France). […] EC50 were calculated by non-linear regression analysis processed on dose–response curves, using TableCurve 2D V5 software.

Series [2] is described as follows: Cytotoxicity on THP-1 cell line (MTT). In kind it is cell-based. As to conditions: human, THP-1 cells, THP1 cell line. Here is the method:
The plates were incubated for 72 h at 37 °C. Each well plate was then microscope-examined for detecting possible precipitate formation before the medium was aspirated from the wells. 100 µL of MTT solution (0.5 mg/mL in medium) were then added to each well. Cells were incubated for 2 h at 37 °C. […] Plates were shaken vigorously (300 rpm) for 10 min. The absorbance was measured at 570 nm using a BIO-TEK ELx808 Absorbance Microplate Reader. DMSO was used as blank and doxorubicin (purchased from Sigma Aldrich) as positive control. Cell viability was calculated as percentage of control (cells incubated with DMSO). […] (Palo Alto, CA, USA). CC50 values represent the mean value calculated from three separate experiments.

The test system of series [3] is L. infantum axenic amastigotes. Kind of series: Antileishmanial activity on L. infantum axenic amastigotes (luciferase assay). In kind it is cell-based. As to conditions: Leishmania infantum, 48 h, read-out: EC50 L. infantum Axenic Ama. Here is the method: L. infantum promastigotes were harvested in logarithmic phase of growth by centrifugation at 900× g for 10 min. The supernatant was removed carefully and was replaced by the same volume of RPMI 1640 complete medium at pH 5.4 and incubated for 24 h at 24 °C. The acidified promastigotes were then incubated for 24 h at 37 °C in a ventilated flask to transform them into axenic amastigotes. The amastigote stage was checked both by electron microscopy (short flagellum with small bulbous tip extending beyond a spherical cell body) and RT-PCR to confirm the overexpression of ATG8 and amastin genes in amastigotes, relative to promastigotes. The effects of the tested compounds on the growth of L. infantum axenic amastigotes were assessed as follows. L. infantum amastigotes were incubated at a density of 2 × 10^6 parasites/mL in sterile 96-well plates with various concentrations of compounds dissolved in DMSO (final concentration less than 0.5% v/v), in duplicate. Appropriate controls treated with DMSO, amphotericin B, miltefosine, fexinidazole and fexinidazole sulfone were added to each set of experiments. After a 48 h incubation period at 37 °C, each plate-well was then microscopically examined to detect any precipitate formation.
(§1) • Luciferase activity and determination of EC50 were performed as above.

Series [4] has as its system L. donovani promastigotes. Kind of series: Antileishmanial activity against L. donovani promastigotes (MTT assay). It counts as cell-based. Conditions: Leishmania donovani, 72 h, read-out: EC50 L. donovani Pro. Here is the method:
The Leishmania species used in this study were L. donovani (MHOM/IN/00/DEVI) purchased from CNR Leishmania (Montpellier, France). Leishmania promastigote forms were grown in Schneider’s Drosophila medium (Life Technologies, Saint-Aubin, France) supplemented with 100 U/mL penicillin, 100 µg/mL streptomycin, 2 mM L-glutamine and 20% FCS (Life Technologies, Saint-Aubin, France) at 27 °C. The in vitro evaluation of the tested compound’s antileishmanial activity on promastigote forms was carried out by MTT assay according to the Mosmann protocol with some modifications. Briefly, promastigotes in log-phase were incubated at an average density of 10^6 parasites/mL in sterile 96-well plates with various concentrations of compound dissolved in DMSO (final concentration less than 0.5% v/v), in duplicate. Appropriate controls treated with DMSO, Miltefosine, Amphotericin B, Fexinidazole, and Fexinidazole sulfone (reference drugs purchased from Sigma-Aldrich, Saint-Louis, Missouri, USA) were added to each set of experiments. After a 72 h incubation period at 27 °C, parasitic metabolic activity was determined. Each plate-well was then microscope-analyzed to detect any precipitate formation. 20 µL of MTT (3-(4,5-dimethylthiazol-2-yl)-2,5-diphenyltetrazolium bromide) (Sigma-Aldrich, Saint-Louis, Missouri, USA) solution (5 mg/mL in PBS) were added to each well and incubated for 4 h at 27 °C. The enzyme reaction was then stopped by addition of 100 µL of 50% isopropanol–10% sodium dodecyl sulfate. Plates were shaken vigorously at 300 rpm for 10 min. The absorbance was measured at 570 nm in a BIO-TEK Elx808 (Biotek, Colmar, France) absorbance microplate reader. […] EC50 values were calculated by non-linear regression analysis processed dose-response curves, using TableCurve 2D V5.0 software (Systat Software Inc. (Palo Alto, CA, USA)). EC50 values represent the mean value calculated from at least three separate experiments.

Series [5] concerns L. infantum intracellular amastigotes. Kind of series: Antileishmanial activity on L. infantum intracellular (intra-THP1 macrophage) amastigotes. In kind it is cell-based. As to conditions: Leishmania infantum, THP-1; intramacrophage (THP1) amastigotes, 120 h; read-out: EC50 L. infantum Intra. Ama. Here is the method:
The undifferentiated THP1 human monocyte cells (acute monocytic leukemia cell line purchased from ATCC, ref TIB-202) were grown in RPMI 1640 medium (Life Technologies, Saint-Aubin, France) supplemented with 10% FCS (Life Technologies, Saint-Aubin, France), 100 U/mL penicillin, 100 µg/mL streptomycin and 2 mM L-glutamine at 37 °C, 5% CO2. The culture was maintained between 3.10^5 and 1.10^6 cells/mL. The in vitro evaluation of the antileishmanial activity on intracellular amastigote forms of the tested compound was assessed as below.
Briefly, 200 μL of THP-1 cells with Phorbol 12-Myristate 13-Acetate (final concentration 50 ng/mL) were seeded in 96-well plates at an average density of 0.77 × 10^5 cells/mL and incubated for 96 h at 37 °C, 5% CO2. Promastigotes were centrifuged at 3000 rpm for 10 min and the supernatant replaced by the same volume of complete RPMI pH 5.4 and incubated for 24 h at 27 °C. Differentiated THP-1 cells were then infected by acidified promastigotes with an infection ratio of twenty parasites for one macrophage and incubated for 24 h at 37 °C, 5% CO2.
as §1

Series [6] concerns T. b. brucei BSF trypomastigotes. Kind of series: Antitrypanosomal evaluation on T. b. brucei BSF trypomastigotes (Alamar Blue). In kind it is cell-based. As to conditions: Trypanosoma brucei, trypomastigote blood stream form. On the procedure: The effects of the tested compounds on the growth of T. b. brucei were assessed by Alamar Blue® assay described by Räz et al. T. b. brucei AnTat 1.9 (IMTA, Antwerpen, Belgium) was cultured in MEM with Earle’s salts, supplemented according to the protocol of Baltz et al. with the following modifications: 0.5 mM mercaptoethanol (Sigma Aldrich®, France), 1.5 mM L-cysteine (Sigma Aldrich®), 0.05 mM bathocuproïne sulfate (Sigma Aldrich®) and 20% heat-inactivated horse serum (Gibco®, France), at 37 °C and 5% CO2. They were incubated at an average density of 2000 parasites/100 µL in sterile 96-wells plates (Fisher®, France) with various concentrations of compounds dissolved in DMSO, in duplicate. Appropriate controls suramin, treated with sterile water, and fexinidazole, treated with DMSO on sterile water (reference drugs purchased from Sigma Aldrich, France and Fluorochem, UK) were added to each set of experiments. After a 69 h incubation period at 37 °C, 10 µL of the viability marker Alamar Blue® (Fisher, France) were then added to each well, and the plates were incubated for 5 h. The plates were read in a ENSPIRE microplate reader (PerkinElmer, Waltham, MA, USA) using an excitation wavelength of 530 nm and an emission wavelength of 590 nm. […] EC50 were calculated by nonlinear regression analysis processed on dose-response curves, using GraphPad Prism software (USA). EC50 values were calculated from three separate experiments.

The nature of series [7]: Cytotoxicity evaluation on HepG2 cell line (MTT). It counts as cell-based. Conditions: human, HepG2 cells. On the procedure: The tested molecules’ cytotoxicity was assessed according to the method of Mosmann with slight modifications. […] Triplicate assays were performed for each sample. Each plate-well was then microscope-examined to detect possible precipitate formation before the medium was aspirated from the wells. 100 µL of MTT (3-(4,5-dimethyl-2-thiazolyl)-2,5-diphenyl-2H-tetrazolium bromide) solution (0.5 mg/mL in medium without FCS) were then added to each well. […] Plates were shaken vigorously (700 rpm) for 10 min. The absorbance was measured at 570 nm with 630 nm as reference wavelength using a BIO-TEK ELx808 Absorbance Microplate Reader. DMSO was used as blank and doxorubicin (purchased from Sigma Aldrich) as positive control. Cell viability was calculated as percentage of control (cells incubated without compound). […] (Palo Alto, CA, USA)). CC50 values represent the mean value calculated from three separate experiments.

The structures appear in SMILES notation. Read-outs that look alike come from different tables or passages of the source.

One may read the EC50 as the concentration needed to bring the measured effect to its halfway point. For orientation: CC50 means the concentration that lowers cell viability or growth by half. As for `C[C@@H]1[C@H](O)[C@@H](C)/C=C/C=C/C=C/C=C/C=C/C=C/C=C/[C@H](O[C@@H]2O[C@H](C)[C@@H](O)[C@H](N)[C@@H]2O)C[C@@H]2O[C@](O)(C[C@@H](O)C[C@@H](O)[C@H](O)CC[C@@H](O)C[C@@H](O)CC(=O)O[C@H]1C)C[C@H](O)[C@H]2C(=O)O` [Amphotericin B, reference compound], the half-maximal effective concentration (EC50) in series [1] came to 0.04 ± 0.01 µM; in series [3] it was 0.08 ± 0.02 µM; in series [4] it was 0.07 ± 0.01 µM; in series [5], 0.06 ± 0.01 µM. In series [2], the CC50 at 72 h is 12.1 ± 1.3 µM.

One may read the melting point as the temperature of the solid-liquid transition. With `O=[N+]([O-])c1c(CS(=O)(=O)c2ccc(O)cc2)nc2c(Br)cc(Cl)cn12` [Compound 2c, 4-{[(8-Bromo-6-Chloro-3-Nitroimidazo[1,2-a]pyridin-2-yl)methyl]sulfonyl}phenol], the melting point was 242 °C. For the same compound, the EC50 in series [1] is over 100 µM. Besides, in series [6], the EC50 was determined as 0.4 ± 0.03 µM. The same compound returned a cytotoxic concentration (CC50) at 72 h in series [2] of over 100 µM. Besides, in series [3], the concentration for a half-maximal effect (EC50) is over 5 µM. Moreover, in series [7], the CC50 at 72 h is over 3.9 µM. The EC50 in series [4] (promastigotes, MTT) was over 3.1 µM.

The compound `O=[N+]([O-])c1c(CS(=O)(=O)CCC(F)(F)F)nc2c([S+]([O-])c3ccc(Cl)cc3)cc(Cl)cn12` (stereo not drawn) [Compound 6a, 6-Chloro-8-[(4-Chlorophenyl)sulfinyl]-3-Nitro-2-[(3,3,3-Trifluoropropylsulfonyl)methyl] imidazo[1,2-a]pyridine] gave a melting point of 221 °C. The EC50 in series [1] was 7.4 ± 0.4 µM. In series [2], this compound yielded a CC50 at 72 h of over 100 µM. Moreover, in series [3], the EC50 amounted to 5 ± 0.1 µM. This compound displayed a CC50 at 72 h in series [7] of over 5 µM. For the same compound, the EC50 in series [4] (promastigotes, MTT) amounted to 1.9 ± 0.3 µM. Also, the half-maximal effective concentration (EC50) in series [5] was 3.3 ± 0.2 µM.

As to `Cn1c([N+](=O)[O-])cnc1COc1ccc(S(C)(=O)=O)cc1` [Fexinidazole sulfone, reference compound], the EC50 in series [1] was 1.1 ± 0.1 µM; in series [3], 4.3 ± 0.1 µM; in series [4] (promastigotes, MTT), 1.2 ± 0.2 µM; in series [5], 17.8 ± 1.4 µM. The compound also returned a CC50 at 72 h in series [2] of over 100 µM.

As to `CCCCCCCCCCCCCCCCOP(=O)([O-])OCC[N+](C)(C)C` [Miltefosine, reference compound], the EC50 in series [1] is 18.2 ± 0.5 µM; in series [3] it was 0.3 ± 0.02 µM; in series [5] it was 0.4 ± 0.14 µM. In series [2], it took 28.1 ± 3.4 µM to reach half-maximal cytotoxicity (CC50 at 72 h).

The compound `Cc1ccc(C(=O)Nc2ccc(S(=O)(=O)O)c3cc(S(=O)(=O)O)cc(S(=O)(=O)O)c23)cc1NC(=O)c1cccc(NC(=O)Nc2cccc(C(=O)Nc3cc(C(=O)Nc4ccc(S(=O)(=O)O)c5cc(S(=O)(=O)O)cc(S(=O)(=O)O)c45)ccc3C)c2)c1` [Suramin, reference compound] gave an EC50 in series [6] of 0.08 ± 0.04 µM. Also, the CC50 at 72 h in series [7] was over 100 µM.
